Patent publication US12297187B2, “Compound having cyclic structure” (Daiichi Sankyo Company, Limited, priority 2017, dated 2025)

System: IL-10
Experiment: Measurement of IL-10 increase rate (LPS-induced inflammation in mice, serum IL-10 by ELISA)
Assay type: in vivo
Settings: Mus musculus, 2 h, oral 100 mg/kg in 0.5% methyl cellulose, LPS 0.4 mg/kg i.p. one hour later, serum taken one hour after LPS, % control ratio vs 0.5% methyl cellulose group, read-out: IL10 Increase Rate (%)
Method: A test substance was suspended in a 0.5% (w/v) methyl cellulose and orally administered to mice at a dose of 100 mg/kg. One hour later, a lipopolysaccharide (LPS, Sigma-Aldrich, L2630 (trade name)) (0.4 mg/kg) was intraperitoneally administered to induce inflammation. One hour after administration of LPS, blood was taken from the vena cava under anesthesia with isoflurane, placed in a tube containing a serum separating agent, allowed to stand still at room temperature for 20-30 minutes and centrifuged at 4° C. at 12,000 rpm for 5 minutes to obtain the serum. Thereafter, the amount of the IL-10 in the serum was measured by using Mouse IL-10 Quantikine ELISA Kit (R&D systems, M1000B (trade name)) or Mouse IL-10 Immunoassay kit (PerkinElmer, AL502 (trade name)) in accordance with the protocol of the kit. The serum was diluted 10 times with the dilution solution contained in the kit and put in use. IL-10 increase rate (% control ratio) of the compound was calculated in accordance with the following expression: IL-10 increase rate (% control ratio) (IL10 amount in compound administration group)×100/(IL-10 amount in 0.5% (w/v) methyl cellulose administration group)

| Compound | response vs control in vivo at 100 mg/kg |
| --- | --- |
| Cn1c(COc2cc(C(F)(F)F)ccn2)nnc1[C@H]1CC[C@H](c2cnn([C@H]3C[C@H](O)[C@@H](N4CCC4)C3)c2)CC1 (racemic) [Example 28, (1SR,2SR,4RS)-2-(Azetidin-1-yl)-4-(4-{trans-4-[4-methyl-5-({[4-(trifluoromethyl)pyridin-2-yl]oxy}methyl)-4H-1,2,4-triazol-3-yl]cyclohexyl}-1H-pyrazol-1-yl)cyclopentanol] | 113% |
| CN1CCC(c2cn(-c3ccc(-c4nnc(COc5cccc(C(F)(F)F)c5)n4C)cc3)nn2)CC1 [Example 1, 1-Methyl-4-{1-[4-(4-methyl-5-{[3-(trifluoromethyl)phenoxy]methyl}-4H-1,2,4-triazol-3-yl)phenyl]-1H-1,2,3-triazol-4-yl}piperidine] | 146% |
| CC(C)c1cccc(OCc2nnc(-c3ccc(-n4cc(C5CCN(C)CC5)nn4)cn3)n2C)c1 [Example 2, 5-[4-(1-Methylpiperidin-4-yl)-1H-1,2,3-triazol-1-yl]-2-(4-methyl-5-{[3-(propan-2-yl)phenoxy]methyl}-4H-1,2,4-triazol-3-yl)pyridine] | 220% |
| CC(C)c1cccc(OCc2nnc([C@H]3CC[C@H](n4cc(C5(F)CCN(C)CC5)nn4)CC3)n2C)c1 [Example 3, 4-Fluoro-1-methyl-4-{1-[trans-4-(4-methyl-5-{[3-(propan-2-yl)phenoxy]methyl}-4H-1,2,4-triazol-3-yl)cyclohexyl]-1H-1,2,3-triazol-4-yl}piperidine] | 179% |
| CC(C)c1cccc(O[C@H](C)c2nnc([C@H]3CC[C@H](n4cc(C5(F)CCN(C)CC5)nn4)CC3)n2C)c1 [Example 4, 4-Fluoro-1-methyl-4-{1-[trans-4-(4-methyl-5-{(1R)-1-[3-(propan-2-yl)phenoxy]ethyl}-4H-1,2,4-triazol-3-yl)cyclohexyl]-1H-1,2,3-triazol-4-yl}piperidine] | 131% |
| CN1CCC(F)(c2cn([C@H]3CC[C@H](c4nnc(COc5ccc(Cl)c(C(F)(F)F)c5)n4C)CC3)nn2)CC1 [Example 5, 4-{1-[trans-4-(5-{[4-Chloro-3-(trifluoromethyl)phenoxy]methyl}-4-methyl-4H-1,2,4-triazol-3-yl)cyclohexyl]-1H-1,2,3-triazol-4-yl}-4-fluoro-1-methylpiperidine] | 206% |
| CC(C)c1cccc(OCc2nnc([C@H]3CC[C@H](n4cc(-c5ccc([C@@H](C)N6CCC6)cc5)nn4)CC3)n2C)c1 [Example 6, 4-{4-[(1R)-1-(Azetidin-1-yl)ethyl]phenyl}-1-[trans-4-(4-methyl-5-{[3-(propan-2-yl)phenoxy]methyl}-4H-1,2,4-triazol-3-yl)cyclohexyl]-1H-1,2,3-triazole] | 243% |
| CC(C)c1cccc(O[C@@H](C)c2nnc(C34CCC(n5cc(-c6ccc([C@@H](C)N7CCC7)cc6)nn5)(CC3)CC4)n2C)c1 [Example 7, 4-{4-[(1R)-1-(Azetidin-1-yl)ethyl]phenyl}-1-[4-(4-methyl-5-{(1S)-1-[3-(propan-2-yl)phenoxy]ethyl}-4H-1,2,4-triazol-3-yl)bicyclo[2.2.2]oct-1-yl]-1H-1,2,3-triazole] | 113% |
| CC(C)c1cccc(O[C@H](C)c2nnc([C@H]3CC[C@H](n4cc([C@@H]5CC[C@@H](N(C)C)CO5)nn4)CC3)n2C)c1 [Example 8, (3R,6S)—N,N-Dimethyl-6-{1-[trans-4-(4-methyl-5-{(1R)-1-[3-(propan-2-yl)phenoxy]ethyl}-4H-1,2,4-triazol-3-yl)cyclohexyl]-1H-1,2,3-triazol-4-yl}tetrahydro-2H-pyran-3-amine] | 197% |
| CN(C)C12CCC(c3cn([C@H]4CC[C@H](c5nnc(COc6cccc(C(F)(F)F)c6)n5C)CC4)nn3)(CC1)OC2 [Example 9, N,N-Dimethyl-1-{1-[trans-4-(4-methyl-5-{[3-(trifluoromethyl)phenoxy]methyl}-4H-1,2,4-triazol-3-yl)cyclohexyl]-1H-1,2,3-triazol-4-yl}-2-oxabicyclo[2.2.2]octan-4-amine] | 182% |
| Cn1c(COc2cccc(C(F)(F)F)c2)nnc1[C@H]1CC[C@H](n2cc(C34CCC(CN5CCC5)(CC3)CC4)nn2)CC1 [Example 10, 4-[4-(Azetidin-1-ylmethyl)bicyclo[2.2.2]oct-1-yl]-1-[trans-4-(4-methyl-5-{[3-(trifluoromethyl)phenoxy]methyl}-4H-1,2,4-triazol-3-yl)cyclohexyl]-1H-1,2,3-triazole] | 390% |
| CN(C)C12CCC(c3cn([C@H]4CC[C@H](c5nnc(COc6cccc(C(F)(F)F)c6)n5C)CC4)nn3)(CC1)CC2 [Example 11, N,N-Dimethyl-4-{1-[trans-4-(4-methyl-5-{[3-(trifluoromethyl)phenoxy]methyl}-4H-1,2,4-triazol-3-yl)cyclohexyl]-1H-1,2,3-triazol-4-yl}bicyclo[2.2.2]octan-1-amine] | 180% |
| CN(C)C12CC(c3cn([C@H]4CC[C@H](c5nnc(COc6cccc(C(F)(F)F)c6)n5C)CC4)nn3)(C1)C2 [Example 12, N,N-Dimethyl-3-{1-[trans-4-(4-methyl-5-{[3-(trifluoromethyl)phenoxy]methyl}-4H-1,2,4-triazol-3-yl)cyclohexyl]-1H-1,2,3-triazol-4-yl}bicyclo[1.1.1]pentan-1-amine] | 177% |
| CC(C)c1cccc(OCc2nnc([C@@H]3CC[C@@H](n4cc(C5(F)CCN(C)CC5)nn4)CO3)n2C)c1 [Example 13, 4-Fluoro-1-methyl-4-{1-[(3R,6S)-6-(4-methyl-5-{[3-(propan-2-yl)phenoxy]methyl}-4H-1,2,4-triazol-3-yl)tetrahydro-2H-pyran-3-yl]-1H-1,2,3-triazol-4-yl}piperidine] | 156% |
| CC(C)c1cccc(CC2OCCn3c2nnc3[C@H]2CC[C@H](n3cc(C4(F)CCN(C)CC4)nn3)CC2)c1 (stereo partly drawn) [Example 14, 3-{trans-4-[4-(4-Fluoro-1-methylpiperidin-4-yl)-1H-1,2,3-triazol-1-yl]cyclohexyl}-8-[3-(propan-2-yl)benzyl]-5,6-dihydro-8H-[1,2,4]triazolo[3,4-c][1,4]oxazine] | 216% |
| CN1CCC(F)(c2cn([C@H]3CC[C@H](c4nnc5n4CCCC5Oc4cccc(C(F)(F)F)c4)CC3)nn2)CC1 (stereo partly drawn) [Example 15, 3-{trans-4-[4-(4-Fluoro-1-methylpiperidin-4-yl)-1H-1,2,3-triazol-1-yl]cyclohexyl}-8-[3-(trifluoromethyl)phenoxy]-5,6,7,8-tetrahydro[1,2,4]triazolo[4,3-a]pyridine] | 227% |
| CN1CCC(c2cnn(-c3ccc(-c4nnc(COc5cccc(C(F)(F)F)c5)n4C)cc3)c2)CC1 [Example 16, 1-Methyl-4-{1-[4-(4-methyl-5-{[3-(trifluoromethyl)phenoxy]methyl}-4H-1,2,4-triazol-3-yl)phenyl]-1H-pyrazol-4-yl}piperidine] | 170% |
| Cn1c(COc2cccc(C(F)(F)F)c2)nnc1[C@H]1CC[C@H](n2cc([C@H]3CC[C@H](N4CCC4)CC3)cn2)CC1 [Example 17, 3-(trans-4-{4-[trans-4-(Azetidin-1-yl)cyclohexyl]-1H-pyrazol-1-yl}cyclohexyl)-4-methyl-5-{[3-(trifluoromethyl)phenoxy]methyl}-4H-1,2,4-triazole] | 334% |
| CN1CCC(c2cn(-c3ccc(-c4nnc(COc5cccc(C(F)(F)F)c5)n4C)cc3)cn2)CC1 [Example 18, 1-Methyl-4-{1-[4-(4-methyl-5-{[3-(trifluoromethyl)phenoxy]methyl}-4H-1,2,4-triazol-3-yl)phenyl]-1H-imidazol-4-yl}piperidine] | 157% |
| Cn1c(COc2cccc(C(F)(F)F)c2)nnc1[C@H]1CC[C@H](c2cn([C@@H]3CC[C@@H](CN4CCC4)OC3)nn2)CC1 [Example 19, 1,5-Anhydro-6-azetidin-1-yl-2,3,4,6-tetradeoxy-2-{4-[trans-4-(4-methyl-5-{[3-(trifluoromethyl)phenoxy]methyl}-4H-1,2,4-triazol-3-yl)cyclohexyl]-1H-1,2,3-triazol-1-yl}-D-erythro-hexitol] | 227% |
| Cn1c(COc2cc(C(F)(F)F)ccn2)nnc1[C@H]1CC[C@H](c2cn([C@H]3CC[C@H](N4CC(CF)C4)CC3)nn2)CC1 [Example 20, 2-({5-[trans-4-(1-{trans-4-[3-(Fluoromethyl)azetidin-1-yl]cyclohexyl}-1H-1,2,3-triazol-4-yl)cyclohexyl]-4-methyl-4H-1,2,4-triazol-3-yl}methoxy)-4-(trifluoromethyl)pyridine] | 176% |
| Cn1c(COc2cccc(C(F)(F)F)c2)nnc1[C@H]1CC[C@H](c2cnn([C@H]3CC[C@H](N4CCC4)CC3)c2)CC1 [Example 21, 3-(trans-4-{1-[trans-4-(Azetidin-1-yl)cyclohexyl]-1H-pyrazol-4-yl}cyclohexyl)-4-methyl-5-{[3-(trifluoromethyl)phenoxy]methyl}-4H-1,2,4-triazole] | 312% |
| Cn1c(COc2cccc(C(F)(F)F)c2)nnc1[C@H]1CC[C@H](c2cnn([C@@H]3CC[C@@H](CN4CCC4)OC3)c2)CC1 [Example 22, 1,5-Anhydro-6-azetidin-1-yl-2,3,4,6-tetradeoxy-2-{4-[trans-4-(4-methyl-5-{[3-(trifluoromethyl)phenoxy]methyl}-4H-1,2,4-triazol-3-yl)cyclohexyl]-1H-pyrazol-1-yl}-D-erythro-hexitol] | 113% |
